Source: patent publication US20250313544A1, “INHIBITORS OF GLUTATHIONE S-TRANSFERASE ZETA 1 (GSTZ1) AND METHODS OF USE” (H. LEE MOFFITT CANCER CENTER AND RESEARCH INSTITUTE, INC., priority 2022, published 2025)

Columns and labels:
[1] = tested on: HCC366 cells harboring mutated DDR2; experiment: Cell viability assay (CellTiter-Glo) in HCC366 cells; format: cell-based, human; conditions: probe combined with dasatinib in HCC366 cells, dose of 10 μM (FIG. 9F)
Protocol: (§1) Cells were seeded in Corning 384-well black walled/clear bottom microplates with a density of 1,000 cells/well and treated with indicated drugs and concentrations following cell attachment for 24 h. After 72 h or 96 h, as indicated, cell viability was evaluated with CellTiter-Glo (Promega, Madison, WI) according to manufacturer's recommendations. An M5 Spectramax plate reader (Molecular devices) was used to read the plates with 500 ms integration. Data was processed and analyzed using Excel and GraphPad Prism 9.0.

[2] = tested on: H520 cells harboring amplified FGFR1; experiment: Cell viability assay (CellTiter-Glo) in H520 cells; format: cell-based, human; conditions: probe combined with infigratinib in H520 cells, dose of 5 μM (FIG. 9E)
Protocol: as §1

[3] = molecular target: T1, GSTZ1 (Homo sapiens, UniProt O43708); experiment: GSTZ1 pulldown and competition after photocrosslinking in live H1792 cells (biotin enrichment, immunoblotting); format: binding; parameters: endogenous in cells; host or cells: H1792 cells; conditions: UV crosslinking
T1 sequence (O43708 1-216): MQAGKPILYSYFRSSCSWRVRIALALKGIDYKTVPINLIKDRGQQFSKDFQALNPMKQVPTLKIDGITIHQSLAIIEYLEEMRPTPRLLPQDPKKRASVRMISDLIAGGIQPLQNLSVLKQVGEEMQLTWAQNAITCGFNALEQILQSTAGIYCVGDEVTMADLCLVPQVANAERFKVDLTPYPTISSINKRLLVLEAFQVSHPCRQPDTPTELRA
Protocol: Cells were harvested and washed with PBS and lysed in RIPA buffer (150 mM NaCl, 50 mM Tris-HCl, pH 7.4, 5 mM EDTA, 1% NP40, 0.1% SDS) containing complete protease inhibitor cocktail (Roche, 11873580001) and phosphatase inhibitor cocktail 2 (Sigma, P5726) for 30 min on ice. The Coomassie Plus (Bradford) protein assay (23236, ThermoFisher, MA) was conducted for measuring concentrations of resulting supernatants. Samples were prepared by adding 4× Laemmli sample buffer and heat-denaturing for 5 minutes. All samples or total cell lysates were resolved by SDS-PAGE and then transferred onto PVDF membranes. 5% non-fat milk was utilized for blocking of non-specific binding. Blots were incubated with primary antibodies overnight at 4° C. For immunoblotting, primary antibodies were purchased from Cell Signaling: PARP1 (#9542), cleaved caspase-3 (#9661), Phospho-tyrosine Mouse mAb (P-Tyr-100, #9411), FGFR1 (#9740). GAPDH (#60004-1-Ig) and GSTZ1 (#14889-1-AP) were purchased from Proteintech. […] Densitometry was analyzed using Image Studio Lite Ver 5.2.
Cells were grown in 10 cm dishes to ˜90% confluence at the time of treatment. […] Protein concentrations were determined using Bradford assays. […]

[4] = tested on: drug-refractory NSCLC cells (H1792, H520, HCC366); experiment: Cell viability assay (CellTiter-Glo) across drug-refractory NSCLC cell lines; format: cell-based, human
Protocol: as §1

GSTZ1 enrichment by probe (affinity enrichment, immunoblotting with GSTZ1 antibody) [3]: specifically enriched
Structure (SMILES): C#CCCC1(CCC(=O)N2CCC(COc3nc4ccccc4nc3C)CC2)N=N1 [Probe 17, 3-(3-(but-3-yn-1-yl)-3H-diazirin-3-yl)-1-(4-(((3-methylquinoxalin-2-yl)oxy)methyl)piperidin-1-yl)propan-1-one]
sensitization of cells towards dasatinib [1]: significantly enhanced the sensitivity
sensitization of cells towards infigratinib [2]: significantly enhanced the sensitivity
single agent activity (cell viability) [4]: moderate single agent activity
cellular activity of probes (cell viability) ([4]; single agent): displayed activity toward multiple tested cell lines
relative potency among active probes (cell viability) ([4]; single agent): more potent
